In experiment [1] the test system is Bel7402. Also noted: method as in PMID 31080076. The settings on record: cited from earlier work.
The subject of experiment [2] is Bel-7402/5-FU. Also noted: method as in PMID 31080076. The settings on record: cited from earlier work.
Experiment [3] deals with U937 cell line. Also noted: method as in PMID 33213229. To be noted: cited from earlier work.
The subject of experiment [4] is HL-60 cell line. Also noted: method as in PMID 33213229. To be noted: cited from earlier work.
The subject of experiment [5] is K562 cell line. Also noted: method as in PMID 33213229. The settings on record: cited from earlier work.
Experiment [6] relates to HCT116 cells. Also noted: method as in PMID 31097715. The settings on record: cited from earlier work.
Experiment [7] deals with HCEC non-malignant epithelial cells. Also noted: method as in PMID 31097715. To be noted: HCEC non-malignant corneal epithelial cells; cited from earlier work.
Experiment [8] relates to SW480 cells. Put plainly: Cell viability, sulforhodamine B (SRB) assay. The class given is cell-based. To be noted: Homo sapiens. On the procedure:
(§1) SW480 (colon adenocarcinoma) and SW620 (derived metastatic) malignant cell lines, and the non-malignant lines HaCaT (human keratinocytes) and CHO-K1 (Chinese Hamster Ovary), were obtained from the European Collection of Authenticated Cell Cultures (ECACC, Porton Down, Salisbury, UK). The cells were maintained in Dulbecco’s Modified Eagle’s Medium (DMEM), supplemented with 10% equine serum previously inactivated at 56 °C, 1% penicillin/streptomycin, and 1% non-essential amino acids, and incubated at 37 °C in an atmosphere with 5% CO2. To carry out the experiments, the serum was diluted to 3% and additionally supplemented with […] insulin, […] transferrin, and 5 ng/mL selenium. Cells were used for experimentation when they reached 80–90% confluence, using a 1X trypsin enzymatic disintegration method. To avoid contamination by Mycoplasma spp., cell cultures were periodically analyzed by polymerase chain reaction (PCR).
(§2) Cell viability was evaluated with a sulforhodamine B (SRB) assay. This technique provides an index of protein contents in living and adherent cells, whose optical density can be related to cell concentration. Initially, 20,000 cells were seeded per well in 96-well culture plates. An initial adherence period of 24 h was performed at 37 °C, 5% CO2, and after this, the medium was replaced by another that contained the hybrid compounds in different concentrations. Then, the cells were left incubating for 24 and 48 h under the same conditions previously described. After the respective incubation times, the cells were fixed with trichloroacetic acid (50% v/v) for 1 h at 4 °C and stained with 0.4% (p/v) of SRB. Subsequently, washings with 1% acetic acid were carried out to eliminate possible nonspecific bindings, and after solubilization with 10 mM Tris-base, the absorbance was read at 492 nm in a microplate reader (Mindray MR-96A). All the experiments were carried out in triplicate.

Experiment [9] relates to SW620 cells. Put plainly: Cell viability, sulforhodamine B (SRB) assay. The class given is cell-based, human. The settings on record: Homo sapiens. On the procedure: as §1, §2
The subject of experiment [10] is HaCaT cells. Put plainly: Cell viability, sulforhodamine B (SRB) assay, non-malignant cells. In kind it is cell-based. To be noted: Homo sapiens. As to the method: as §1, §2
Experiment [11] deals with CHO-K1 cells. The description is as above. The class given is cell-based, Chinese Hamster. To be noted: Cricetulus griseus. On the procedure:
as §1, §2

Experiment [12] relates to SW480 cells. The experiment in a line: Antiproliferative activity (SRB, 0-8 days). The class given is cell-based. To be noted: Homo sapiens, read-out: Cell Viability (%) ± SE; for viability at 2.5 µM: SW480, 2.5 µM; for viability at 40 µM: SW480, 40 µM. As to the method: For this experiment, the same colorimetric method (SRB) from the evaluation of cell viability was used, although with some modifications. Initially, 2500 cells per well were seeded in 96-well culture plates, and a 24 h adherence period was performed at 37 °C in a 5% CO2 atmosphere. […] For this assay, incubation periods of 0, 2, 4, 6, and 8 days were used, and the fixation, staining, and reading conditions were the same as those previously described for the cytotoxicity assay.

The test system of experiment [13] is SW480 cells. Put plainly: Cell cycle analysis (PI, flow cytometry). The class given is cell-based, human. To be noted: SW480, treated with IC50 value, 48 h. As to the method:
The method used for the recognition of cell cycle phases (G0/G1, S, G2/M) was based on staining with a fluorescent dye (propidium iodide—PI), as a direct relationship between fluorescence intensity and DNA content can be established. For this method, 250,000 cells/well were initially seeded in 6-well culture plates with an adherence period of 24 h at 37 °C in a 5% CO2 atmosphere. […] After treatment, cells were obtained by mechanical disaggregation, and the cell pellet was centrifuged and washed with a versene buffer. The cell pellet was fixed with 1.8 mL of cold 70% ethanol and kept at 4 °C overnight. Subsequently, two washes with a versene buffer were performed, and the pellet was resuspended in 300 µL of PBS containing 0.25 mg/mL of RNAsa and 0.1 mg/mL of PI. After a 30 min period of dark incubation, the fluorescence of 10,000 cells was analyzed using a FACS Canto II flow cytometer. The PI signal was analyzed with excitation at 488 nm using a sapphire laser, and fluorescence was detected at 610 nm. The data analysis was performed with FlowJo 10.8.1 software.

The test system of experiment [14] is SW480 cells. The experiment in a line: Mitochondrial membrane potential (DiOC6/PI, flow cytometry). In kind it is cell-based, human. To be noted: SW480, treated with IC50, 48 h. As to the method:
The fluorescent dyes PI and DIOC6 (3,3’-dihexyloxacarbocyanine iodide) were used to observe the depolarization of the mitochondrial membrane as well as possible cell membrane damage. For this method, 250,000 cells/well were initially seeded in 6-well culture plates during a 24 h adherence period at 37 °C in a 5% CO2 atmosphere. […] After treatment, cells were obtained by mechanical disaggregation, stained with DiOC6 and PI, and incubated at room temperature for 30 min in the dark. Ten thousand events were analyzed by flow cytometry with excitation at 488 nm and emission detection with green (530/15 nm) and red (610/20 nm) filters.

Experiment [15] deals with caspase 3, caspase 7, caspase 8 and p53 in SW480 cells. Put plainly: Apoptotic biomarkers (ELISA). The class given is cell-based, human. The settings on record: SW480, treated with IC50, 48 h, vs control. On the procedure:
To provide an approach to the possible molecular mechanisms through which the hybrid compounds induce an effect on the cell lines, different proteins related to the process of death by apoptosis were determined. For this method, 1,000,000 cells were initially seeded per Petri dish, with an adherence period of 24 h at 37 °C in a 5% CO2 atmosphere. […] Later, the consumed medium was discarded, and after the addition of the versene buffer, the cells were obtained by mechanical disaggregation. The cells were then lysed with a cell lysis buffer and centrifuged to obtain the supernatant, which was used to determine the biomarkers of interest by enzyme-linked immunosorbent assays. These ELISA kits were provided by Elabscience Biotechnology Co., Houston, TX, USA [26].

Experiment [16] has as its system normal 3T3 cells. Also noted: method as in PMID 31080076. The settings on record: normal 3T3 cells (mouse embryonic fibroblast cell line); cited from earlier work.
The test system of experiment [17] is SW480 cells. Also noted: method as in PMID 36297411. To be noted: cited from earlier work.
Experiment [18] has as its system SW620 cells. Also noted: method as in PMID 36297411. To be noted: cited from earlier work.
For experiment [19], the system named is SW480 human colon adenocarcinoma cells. Also noted: method as in PMID 34062841. The settings on record: cited from earlier work.
For experiment [20], the system named is SW620 cell line. Also noted: method as in PMID 34062841. To be noted: cited from earlier work.
Experiment [21] concerns SGC-7901. Also noted: method as in PMID 30025345. The settings on record: cited from earlier work.
In experiment [22] the test system is MGC-803. Also noted: method as in PMID 30025345. To be noted: cited from earlier work.
Experiment [23] concerns SMMC-7721. Also noted: method as in PMID 30025345. To be noted: cited from earlier work.
In experiment [24] the test system is U87. Also noted: method as in PMID 30025345. To be noted: cited from earlier work.
Experiment [25] relates to RPMI8226 cells. Also noted: method as in PMID 23784627. To be noted: cited from earlier work.
The test system of experiment [26] is MM1S cells. Also noted: method as in PMID 23784627. The settings on record: cited from earlier work.
Experiment [27] relates to U266 cells. Also noted: method as in PMID 23784627. To be noted: cited from earlier work.
Experiment [28] relates to THP-1 cell line. Also noted: method as in PMID 27060762. The settings on record: cited from earlier work.
Experiment [29] concerns COLO-205 cell line. Also noted: method as in PMID 27060762. The settings on record: cited from earlier work.
The subject of experiment [30] is HCT-116 cell line. Also noted: method as in PMID 27060762. To be noted: cited from earlier work.
The test system of experiment [31] is tubulin polymerization. Also noted: method as in PMID 27060762. To be noted: in THP-1 tumor cells; read-out: IC50, inhibition of tubulin polymerization; cited from earlier work.

Like-named read-outs stand apart in the source and are kept apart here. Where only a bound is given, the exact number is not on record here.

Take `COc1cccc2c1C(=O)c1c(O)c3c(c(O)c1C2=O)C[C@@](O)(C(=O)CO)C[C@@H]3O[C@H]1C[C@H](N)[C@H](O)[C@H](C)O1` [Adriamycin]: the IC50 in experiment [1] was 0.73 µM; in [2], 1.14 µM.

Consider `CC1(C)CCC(C)(C)c2cc(NC(=O)c3ccc(C(=O)OCn4cc(F)c(=O)[nH]c4=O)cc3)ccc21` [B], for which the IC50 was 8.21 µM in [3], 9.87 µM in experiment [4] and 10.6 µM in experiment [5].

`CC1=C(CCC(=O)OCn2cc(F)c(=O)[nH]c2=O)C(=O)C(C(C)C)=CC1=O` [C]: the 50% inhibitory concentration (IC50) in [6] is 16 µM; in [7] it was 52 µM.

Consider `COc1cc(/C=C/C(=O)c2ccc(OCCn3cc(Cn4cc(F)c(=O)[nH]c4=O)nn3)cc2)ccc1O` [Compound 6a, (E)-5-fluoro-1-((1-(2-(4-(3-(4-hydroxy-3-methoxyphenyl)acryloyl)phenoxy)ethyl)-1H-1,2,3-triazol-4-yl)methyl)pyrimidine-2,4(1H,3H)-dione], for which the IC50 is 75.3 ± 4.65 µM in experiment [8] (SW480, 24 h); 17.4 ± 1.16 µM in experiment [8] (SW480, 48 h); over 100 µM in [9] (SW-620, 24 h, 24 h); 45.1 ± 0.98 µM in [9] (SW-620, 48 h, 48 h); 71.8 ± 4.22 µM in experiment [10] (24 h); 27.9 ± 2.53 µM in experiment [10] (48 h). The IC50 amounted to 82.8 ± 6.43 µM in [11] (CHO-K1, 24 h) and 73.7 ± 1.07 µM in [11] (CHO-K1, 48 h). The viability at 2.5 µM in experiment [12] (48 h, 2 days after plating) turned out to be 97.9 ± 1.55%; in [12] (96 h, 4 days after plating) it was 81.2 ± 2.8%; in [12] (144 h, 6 days after plating), 59.5 ± 3.45%; in [12] (192 h, 8 days after plating), 42.8 ± 1.3%. For the same compound, the viability at 40 µM in experiment [12] (48 h, 2 days after plating) was determined as 16.2 ± 2.51%; in [12] (96 h, 4 days after plating), 8 ± 1.81%; in [12] (144 h, 6 days after plating) it was 2.04 ± 0.35%; in [12] (192 h, 8 days after plating) it was 0%. Moreover, in experiment [13], the “Cell cycle distribution, G0/G1” value worked out at 53.6%. Further, the “Cell cycle distribution, G2/M” value in experiment [13] is 22.2%. Also, the “Cell cycle distribution, S Phase” value in experiment [13] is reported as 24.1%. Besides, the “Cell cycle distribution, Sub G0/G1” value in [13] was 0%. Besides, the “Dioc6 High population (live cells with high membrane polarization)” value in experiment [14] was 84.9%. The “Dioc6 Low population (cells that lose membrane polarization)” value in experiment [14] was 0%. Besides, in experiment [14], the “PI+ population (membrane damage or dead cells)” value was found to be 15%. In addition, in experiment [14], the “changes in the mitochondrial membrane potential” value was “do not induce significant changes”. Moreover, in experiment [15], the “levels of biomarkers (caspase 3, caspase 7, caspase 8, p53)” value is listed as “no significant differences”.

Take `C=C1C(=O)OC2C1CCC(COC(=O)Cn1cc(F)c(=O)n(Cc3ccc(C(F)(F)F)cc3)c1=O)=CCCC1(C)OC21` (stereo not drawn) [D]: the IC50 in [16] was 5.2 µM.

Turning to `O=c1[nH]c(=O)n(Cc2cn(CCOc3cc(O)c4c(=O)c(-c5ccc(O)cc5)coc4c3)nn2)cc1F` [E], the IC50 in experiment [17] is 62.7 ± 7.26 µM; in experiment [18], 50.6 ± 1.33 µM.

Take `COc1ccc(/C=C/c2ccc(C(=O)/C=C/c3ccc(O)c(OC)c3)cc2)c(OC)c1` [G]: the IC50 in [19] is 29.2 µM; in experiment [20] it was 20.4 µM.

With `COc1cc(OC)c2c(=O)c(OCCCOc3ccccc3/C=C/C(=O)/C=C/c3ccccn3)c(-c3cc(OC)c(OC)c(OC)c3)oc2c1` [H], the IC50 is 1.08 µM in [21], 0.56 µM in experiment [22], 3.18 µM in experiment [23] and 3.93 µM in [24].

Consider `COc1cc(/C=C/C(=O)C(=Cc2cccc3c2C(=O)N(C2CCC(=O)NC2=O)C3=O)C(=O)/C=C/c2ccc(O)c(OC)c2)ccc1O` (stereo not drawn) [I], for which the IC50 was 4.55 µM in experiment [25], 6.44 µM in experiment [26] and 3.96 µM in [27].

`COc1cc(/C=C/C(=O)/C=C/c2cc(OC)c(OC)c(OC)c2)ccc1OCc1cn(CCOc2cc(=O)oc3ccccc23)nn1` [J]: the IC50 in [28] was 0.82 µM; in [29], 4.68 µM; in experiment [30], 2.21 µM; in experiment [31], 0.82 µM.

(Values after publication PMC10144058, “New Hybrid Scaffolds Based on 5-FU/Curcumin: Synthesis, Cytotoxic, Antiproliferative and Pro-Apoptotic Effect” (Pharmaceutics, 2023).)
